This is an account of results in the NIST ThermoML archive (doi:10.1021/je9002515).

± gives the expanded uncertainty stated by the source.

The conditions of data set [1]: 101 kPa, Liquid, Alternating current cell with electrodes.
The nature of data set [2]: xn = mol fraction of the nth substance listed. The following applies: 101 kPa, Liquid, Alternating current cell with electrodes, x2 = 0.

As to `CC(=O)N(C)C` [N,N-dimethylethanamide], the electrical conductivity in data set [1] (303.15 K) came out at 0.0149 ± 0.0024 S/m; in data set [1] (313.15 K), 0.0195 ± 0.0031 S/m; in data set [1] (323.15 K) it was 0.024 ± 0.0038 S/m; in data set [1] (333.15 K), 0.0307 ± 0.0049 S/m; in data set [1] (343.15 K), 0.04 ± 0.0064 S/m; in data set [1] (353.15 K), 0.0462 ± 0.0074 S/m. The electrical conductivity was determined as 0.0508 ± 0.0081 S/m in data set [1] (363.15 K), 0.0534 ± 0.0086 S/m in data set [1] (373.15 K), 0.0544 ± 0.0087 S/m in data set [1] (383.15 K) and 0.0518 ± 0.0083 S/m in data set [1] (393.15 K).

As to `CC(=O)N(C)C` [N,N-dimethylethanamide] + CNC(C)=O, the electrical conductivity in data set [2] (303.15 K) was found to be 0.0149 ± 0.0024 S/m; in data set [2] (313.15 K), 0.0195 ± 0.0031 S/m; in data set [2] (323.15 K), 0.024 ± 0.0038 S/m; in data set [2] (333.15 K) it was 0.0307 ± 0.0049 S/m; in data set [2] (343.15 K), 0.04 ± 0.0064 S/m; in data set [2] (353.15 K) it was 0.0462 ± 0.0074 S/m. Moreover, the electrical conductivity in data set [2] (363.15 K) was 0.0508 ± 0.0081 S/m; in data set [2] (373.15 K), 0.0534 ± 0.0086 S/m; in data set [2] (383.15 K) it was 0.0544 ± 0.0087 S/m; in data set [2] (393.15 K), 0.0518 ± 0.0083 S/m.

On to `CNC(C)=O` [N-methylacetamide], for which the electrical conductivity in data set [1] (303.15 K) is 0.0324 ± 0.0052 S/m; in data set [1] (313.15 K), 0.0447 ± 0.0072 S/m; in data set [1] (323.15 K), 0.0614 ± 0.0098 S/m; in data set [1] (333.15 K), 0.0775 ± 0.012 S/m; in data set [1] (343.15 K) it was 0.105 ± 0.017 S/m; in data set [1] (353.15 K), 0.129 ± 0.021 S/m. Moreover, the electrical conductivity in data set [1] (363.15 K) was 0.165 ± 0.026 S/m; in data set [1] (373.15 K) it was 0.192 ± 0.031 S/m; in data set [1] (383.15 K), 0.219 ± 0.035 S/m; in data set [1] (393.15 K) it was 0.247 ± 0.04 S/m.
